{"source": "patent US20210290514A1", "about": "“An Antimicrobial Combination Composition Comprising Glycerol Derivatives and Bicyclic Compounds” (CLARIANT INTERNATIONAL LIMITED, priority 2018, published 2021)", "assay_in_all_cases": "in vitro growth inhibition of a microbial strain by compositions formulated to pH 5.5", "assay_type_in_all_cases": "cell-based", "key": {"Staphylococcus aureus": {"tested_on": "Staphylococcus aureus", "description": "(§1) Several antimicrobial combinations compositions were formulated to pH of 5.5. These compositions were tested for their ability to inhibit in vitro the growth of a microbial strain. “Green” indicates a substantial inhibition, “Yellow” indicates an intermediate inhibition, and “Red” indicates little to no inhibition."}, "[1]": {"tested_on": "Aspergillus brasilliensis", "description": "as §1"}, "Pseudomonas aeruginosa": {"tested_on": "Pseudomonas aeruginosa", "description": "as §1"}, "Echerichia coli": {"tested_on": "Echerichia coli", "description": "as §1"}, "Candida albicans": {"tested_on": "Candida albicans", "description": "as §1"}}, "data": [{"smiles": "CCCCCCCCOCC(O)CO", "note": "(stereo not shown) [Octylglycerin, 3-[(n-octyl)oxy]-1,2-propanediol]", "values": [{"measurement": "antimicrobial activity, Staphylococcus aureus", "setting": "Staphylococcus aureus; 0.5%", "result": "Green"}, {"measurement": "antimicrobial activity, Staphylococcus aureus", "setting": "Staphylococcus aureus; 0.8%", "result": "Green"}, {"measurement": "antimicrobial activity, Staphylococcus aureus", "setting": "Staphylococcus aureus; 1.0%", "result": "Green"}, {"measurement": "antimicrobial activity, Staphylococcus aureus", "setting": "Staphylococcus aureus; 1.5%", "result": "Green"}, {"measurement": "antimicrobial activity, Aspergillus brasilliensis", "setting": "[1]; 0.5%", "result": "Yellow"}, {"measurement": "antimicrobial activity, Aspergillus brasilliensis", "setting": "[1]; 0.8%", "result": "Green"}, {"measurement": "antimicrobial activity, Aspergillus brasilliensis", "setting": "[1]; 1.0%", "result": "Yellow"}, {"measurement": "antimicrobial activity, Aspergillus brasilliensis", "setting": "[1]; 1.5%", "result": "Yellow"}, {"measurement": "antimicrobial activity, Pseudomonas aeruginosa", "setting": "Pseudomonas aeruginosa; 0.5%", "result": "Green"}, {"measurement": "antimicrobial activity, Pseudomonas aeruginosa", "setting": "Pseudomonas aeruginosa; 0.8%", "result": "Green"}, {"measurement": "antimicrobial activity, Pseudomonas aeruginosa", "setting": "Pseudomonas aeruginosa; 1.0%", "result": "Green"}, {"measurement": "antimicrobial activity, Pseudomonas aeruginosa", "setting": "Pseudomonas aeruginosa; 1.5%", "result": "Green"}, {"measurement": "antimicrobial activity, Echerichia coli", "setting": "Echerichia coli; 0.5%", "result": "Green"}, {"measurement": "antimicrobial activity, Echerichia coli", "setting": "Echerichia coli; 0.8%", "result": "Green"}, {"measurement": "antimicrobial activity, Echerichia coli", "setting": "Echerichia coli; 1.0%", "result": "Green"}, {"measurement": "antimicrobial activity, Echerichia coli", "setting": "Echerichia coli; 1.5%", "result": "Green"}, {"measurement": "antimicrobial activity, Candida albicans", "setting": "Candida albicans; 0.5%", "result": "Green"}, {"measurement": "antimicrobial activity, Candida albicans", "setting": "Candida albicans; 0.8%", "result": "Green"}, {"measurement": "antimicrobial activity, Candida albicans", "setting": "Candida albicans; 1.0%", "result": "Green"}, {"measurement": "antimicrobial activity, Candida albicans", "setting": "Candida albicans; 1.5%", "result": "Green"}]}, {"smiles": "CCCCC(CC)COCC(O)CO", "note": "(stereo not shown) [Velsan ethylhexylglycerin, 3-[(2-ethylhexyl)oxy]-1,2-propanediol]", "values": [{"measurement": "antimicrobial activity, Staphylococcus aureus", "setting": "Staphylococcus aureus; 0.5%", "result": "Green"}, {"measurement": "antimicrobial activity, Staphylococcus aureus", "setting": "Staphylococcus aureus; 0.8%", "result": "Green"}, {"measurement": "antimicrobial activity, Staphylococcus aureus", "setting": "Staphylococcus aureus; 1.0%", "result": "Green"}, {"measurement": "antimicrobial activity, Staphylococcus aureus", "setting": "Staphylococcus aureus; 1.5%", "result": "Green"}, {"measurement": "antimicrobial activity, Aspergillus brasilliensis", "setting": "[1]; 0.5%", "result": "Red"}, {"measurement": "antimicrobial activity, Aspergillus brasilliensis", "setting": "[1]; 0.8%", "result": "Red"}, {"measurement": "antimicrobial activity, Aspergillus brasilliensis", "setting": "[1]; 1.0%", "result": "Red"}, {"measurement": "antimicrobial activity, Aspergillus brasilliensis", "setting": "[1]; 1.5%", "result": "Red"}, {"measurement": "antimicrobial activity, Pseudomonas aeruginosa", "setting": "Pseudomonas aeruginosa; 0.5%", "result": "Green"}, {"measurement": "antimicrobial activity, Pseudomonas aeruginosa", "setting": "Pseudomonas aeruginosa; 0.8%", "result": "Green"}, {"measurement": "antimicrobial activity, Pseudomonas aeruginosa", "setting": "Pseudomonas aeruginosa; 1.0%", "result": "Green"}, {"measurement": "antimicrobial activity, Pseudomonas aeruginosa", "setting": "Pseudomonas aeruginosa; 1.5%", "result": "Green"}, {"measurement": "antimicrobial activity, Echerichia coli", "setting": "Echerichia coli; 0.5%", "result": "Green"}, {"measurement": "antimicrobial activity, Echerichia coli", "setting": "Echerichia coli; 0.8%", "result": "Green"}, {"measurement": "antimicrobial activity, Echerichia coli", "setting": "Echerichia coli; 1.0%", "result": "Green"}, {"measurement": "antimicrobial activity, Echerichia coli", "setting": "Echerichia coli; 1.5%", "result": "Green"}, {"measurement": "antimicrobial activity, Candida albicans", "setting": "Candida albicans; 0.5%", "result": "Green"}, {"measurement": "antimicrobial activity, Candida albicans", "setting": "Candida albicans; 0.8%", "result": "Green"}, {"measurement": "antimicrobial activity, Candida albicans", "setting": "Candida albicans; 1.0%", "result": "Green"}, {"measurement": "antimicrobial activity, Candida albicans", "setting": "Candida albicans; 1.5%", "result": "Green"}]}]}
